The test system of the series is skin site on subject's forearm or face. To be noted: for ENHANCED ACTIVE DELIVERY (HISTAMINE RESPONSE): 0.10% wt/wt histamine, visual inspection after 10 minutes; for PRESENCE OF PIH: graded visually for up to at least 3 weeks; for PRESENCE OF ERYTHEMA: 10 microliters 0.10% wt/wt histamine on treated site.
[1] abbreviates: test subject 1, forearm, 225 micrometer, 8 lbs/cm^2.
The mark [2] stands for this setting: test subject 2, forearm, 225 micrometer, 6 lbs/cm^2.
Setting [3] is: test subject 4, forearm, 185 micrometer, 4.6 lbs/cm^2.
Setting [4] is: test subject 5, forearm, 185 micrometer, 8 lbs/cm^2.
[5] abbreviates: test subject 6, forehead, 145 micrometer, 5 lbs/cm^2.

Each structure is given as a SMILES string. Read-outs that look alike come from different tables or passages of the source.

`NCCc1c[nH]cn1` [histamine]: the “skin's reaction to topically applied histamine” value runs as follows: (control test sites: histamine solution on untreated skin sites not pierced by the microprotrusion members) “did not result in erythema”; (following microprotrusion treatment) “manifested in erythema”. Further, the “ENHANCED ACTIVE DELIVERY (HISTAMINE RESPONSE)” value was “Yes,” under setting [1]; “Yes,” under setting [2]; “Yes,” under setting [3]; “Yes,” under setting [4]; “Yes,” under setting [5]. Further, the “PRESENCE OF PIH” value is “Yes” under setting [1]; “Yes” under setting [2]; “No” (test subject 3, cheek (bone), 185 micrometer, 3.2 lbs/cm^2); “No” under setting [3]; “Yes” under setting [4]; “No” under setting [5]. The “PRESENCE OF ERYTHEMA” value by setting is: (test subject 1, forearm, microprotrusion length 225 micrometer, 8 lbs/cm^2) “Present after”; (test subject 2, forearm, microprotrusion length 225 micrometer, 6 lbs/cm^2) “Present after”; (test subject 3, cheek (bone), microprotrusion length 185 micrometer, 3.2 lbs/cm^2) “No”; (test subject 4, forearm, microprotrusion length 185 micrometer, 4.6 lbs/cm^2) “No”; (test subject 5, forearm, microprotrusion length 185 micrometer, 8 lbs/cm^2) “Present after”; (test subject 6, forehead, microprotrusion length 145 micrometer, 5 lbs/cm^2) “No”.

These data come from patent US20060253079A1, “Stratum corneum piercing device” (priority 2005, published 2006).
